US20230414758A1, “CAPSAICIN-DERIVED PHOTOSENSITIZER, AND PREPARATION METHOD AND USE THEREOF” (priority 2022, published 2023)

How the values were obtained:
[1] = target: T1, TRPV1 protein (Mus musculus, UniProt Q704Y3); experiment: Calcium regulation ability at the cellular level, Fluo-8 AM staining, confocal microscopy; assay type: cell-based; conditions: 4T1 cells
T1 construct: endogenous in cells; host or cells: 4T1 cells
Protocol: The specific operations were as follows.
A high-glucose DMEM cell culture medium containing 10% fetal bovine serum and 5% double antibodies (the following media all contained 10% fetal bovine serum and 5% double antibodies) was prepared. Triple negative breast cancer 4T1 cells in logarithmic growth phase were seeded in a Confocal cell culture dish at a density of 1.0×10^4 cells/well, and incubated in a cell incubator (37° C., 5% CO2) for 12 hrs. […] The cells were incubated in an incubator for another 12 hrs, and the culture medium was changed after incubation. The irradiation group was irradiated with LED light (660 nm, 20 mW cm^−2) for 15 min (without treatment in the non-irradiation group). After irradiation, the culture medium was discarded. The cells were rinsed three times with PBS, and the rinsed cells were stained (10 min) with a fluorescent dye Fluo-8 AM (50.0 μmol L^−1, 1.0 mL) for intracellular calcium. After staining, the cells were rinsed with PBS, and observed by laser confocal microscopy.

[2] = reference value used for calculation; cited from earlier work

T1 sequence (Q704Y3 whole entry): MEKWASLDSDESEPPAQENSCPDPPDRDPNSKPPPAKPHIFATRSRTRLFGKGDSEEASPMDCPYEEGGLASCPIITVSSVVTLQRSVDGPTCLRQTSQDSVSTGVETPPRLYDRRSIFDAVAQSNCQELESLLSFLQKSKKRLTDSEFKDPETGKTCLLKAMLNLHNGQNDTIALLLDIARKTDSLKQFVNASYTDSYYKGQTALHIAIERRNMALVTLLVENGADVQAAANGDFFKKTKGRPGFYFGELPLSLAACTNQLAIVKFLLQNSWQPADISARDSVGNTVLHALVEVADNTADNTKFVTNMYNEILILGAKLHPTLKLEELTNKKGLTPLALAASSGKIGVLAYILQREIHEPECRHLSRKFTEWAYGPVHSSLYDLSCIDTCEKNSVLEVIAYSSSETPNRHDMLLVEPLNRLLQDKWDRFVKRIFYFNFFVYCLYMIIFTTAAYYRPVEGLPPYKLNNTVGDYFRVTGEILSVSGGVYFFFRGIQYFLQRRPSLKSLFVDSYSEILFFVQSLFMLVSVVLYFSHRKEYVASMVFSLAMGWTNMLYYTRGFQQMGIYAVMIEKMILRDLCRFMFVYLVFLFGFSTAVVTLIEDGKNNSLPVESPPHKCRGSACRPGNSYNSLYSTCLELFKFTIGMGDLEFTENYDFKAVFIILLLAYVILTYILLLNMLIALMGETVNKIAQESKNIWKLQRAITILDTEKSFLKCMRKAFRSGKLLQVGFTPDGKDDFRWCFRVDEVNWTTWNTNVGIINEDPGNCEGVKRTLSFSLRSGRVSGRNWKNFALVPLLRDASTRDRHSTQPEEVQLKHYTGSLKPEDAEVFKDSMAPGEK

Row | change of intracellular calcium fluorescence intensity after irradiation versus before irradiation ([1]; LED 660 nm, 20 mW cm^−2, 15 min) | intracellular calcium fluorescence under non-irradiation and irradiation conditions ([1]; compared with PBS and BDP groups) | Compound | singlet oxygen quantum yield of the reference [2]
1 | does not change obviously | intense green fluorescence | COc1cc(CNC(=O)CCCC/C=C/C(C)C)ccc1O [CAP, capsaicin] | –
2 | – | – | [Zn+2].c1ccc2c(c1)-c1nc-2nc2[n-]c(nc3nc([n-]c4nc(n1)-c1ccccc1-4)-c1ccccc1-3)c1ccccc21 [ZnPc, Zinc phthalocyanine] | 1
